Test results reported in ChEMBL document CHEMBL6087420, “Synthesis and pharmacodynamic evaluation of 2-aminoindole derivatives against influenza A virus in vitro/vivo” (Eur J Med Chem, 2025).
Active and inactive are the calls of the source. The calls are words filed in the database; no cut-off is given here.

How the values were obtained:
[1] = tested on: Influenza A virus; test: Anti-influenza activity against influenza A virus H1NI (A/Weiss/43) infected in dog MDCK cells assessed as virus inhibition rate at 0.625 uM incubated for 72 hrs by MTT assay; format: functional, organism-based
[2] = tested on: Influenza A virus; test: Anti-influenza activity against influenza A virus H1NI (A/Weiss/43) infected in dog MDCK cells assessed as virus inhibition rate at 100 uM incubated for 72 hrs by MTT assay; format: functional, organism-based
[3] = Cytotoxicity against dog MDCK cells after 72 hrs incubation by MTT assay; format: toxicity, cell-based, Canis lupus familiaris
[4] = tested on: Influenza A virus; test: Anti-influenza activity against influenza A virus H1NI (A/Virginia/ATCC2/2009) infected in dog MDCK cells incubated for 72 hrs by MTT assay; format: functional, organism-based
[5] = tested on: Influenza A virus; test: Inhibition of influenza A virus infection induced apoptosis in MDCK cells infected with influenza virus assessed as necrotic cells at 50 uM incubated for 36 hrs by AnnexinV-FITC/PI staining based flow cytometry (reference value: 1.79%); format: functional; parameters: scale not given: the % may be the effect or the level left
[6] = Selectivity index, ratio of CC50 for dog MDCK cells to EC50 for antiviral activity against Influenza A virus H1N1 (A/Weiss/43) infected in MDCK cells; format: toxicity, cell-based
[7] = Selectivity index, ratio of CC50 for dog MDCK cells to EC50 for antiviral activity against Influenza A virus […] H3N2 (A/California/2014) infected in MDCK cells; format: toxicity, cell-based; settings: read-out: Selectivity Index
[8] = tested on: Influenza A virus; test: Anti-influenza activity against influenza A virus H3N2 (A/California/2014) infected in dog MDCK cells incubated for 72 hrs by MTT assay; format: functional, organism-based
[9] = Selectivity index, ratio of CC50 for dog MDCK cells to EC50 for antiviral activity against Influenza A virus H1NI (A/Virginia/ATCC2/2009) infected in MDCK cells; format: toxicity, cell-based; settings: read-out: Selectivity Index
[10] = tested on: Influenza A virus; test: Inhibition of influenza A virus infection induced apoptosis in MDCK cells infected with influenza virus assessed as early apoptotic cells at 50 uM incubated for 36 hrs by AnnexinV-FITC/PI staining based flow cytometry (reference value: 18.2%); format: functional; parameters: scale not given: the % may be the effect or the level left
[11] = tested on: Influenza A virus; test: Anti-influenza activity against influenza A virus H1NI (A/Weiss/43) infected in dog MDCK cells assessed as virus inhibition rate incubated for 72 hrs by MTT assay; format: functional, organism-based
[12] = tested on: Influenza A virus; test: Inhibition of influenza A virus infection induced apoptosis in MDCK cells infected with influenza virus assessed as late apoptotic cells at 50 uM incubated for 36 hrs by AnnexinV-FITC/PI staining based flow cytometry (reference value: 13.2%); format: functional; parameters: scale not given: the % may be the effect or the level left
[13] = tested on: Influenza A virus; test: Inhibition of influenza A virus infection induced apoptosis in MDCK cells infected with influenza virus assessed as viable cells at 50 uM incubated for 36 hrs by AnnexinV-FITC/PI staining based flow cytometry (reference value: 66.9%); format: functional

Row | Compound | Virus inhibition rate at 0.625 uM [1] | Activity [2] | CC50 at 72 h [3] | further results
1 | Cc1ccc(S(=O)(=O)n2c(NS(C)(=O)=O)c(-c3ccccc3)c3ccccc32)cc1 | Not_active | inactive | 59 µM | –
2 | CCOC(=O)C1=C[C@@H](OC(CC)CC)[C@H](NC(C)=O)[C@@H](N)C1 [OSELTAMIVIR] | – | – | > 800 µM | EC50 ([4]; Influenza A virus, H1NI (A/Virginia/ATCC2/2009), MDCK, 72 h): 11.7 µM; Activity [5]: 2.11%; selectivity ratio ([6]; read-out: Selectivity Index): > 107; selectivity ratio [7]: > 30.4; EC50 [8]: 26.3 µM; selectivity ratio [9]: > 68.6; Activity [10]: 3.85%; EC50 [11]: 7.1 µM; Activity [12]: 2.33%; Activity [13]: 91.7%
3 | Cc1ccc(S(=O)(=O)n2c(NS(C)(=O)=O)c(-c3cccc(F)c3)c3ccccc32)cc1 | Not_active | inactive | 55 µM | –
4 | Cc1ccc(S(=O)(=O)n2c(NS(C)(=O)=O)c(-c3ccccc3C)c3ccccc32)cc1 | Not_active | inactive | 43 µM | –
5 | CS(=O)(=O)Nc1c(-c2ccccc2)c2ccccc2n1S(C)(=O)=O | Not_active | inactive | 341 µM | –
6 | Cc1ccc(S(=O)(=O)n2c(NS(=O)(=O)c3ccc(Cl)cc3)c(-c3ccccc3)c3ccccc32)cc1 | Not_active | inactive | < 6.25 µM | –
7 | COc1ccc(-c2c(NS(C)(=O)=O)n(S(=O)(=O)c3ccc(C)cc3)c3ccccc23)cc1 | – | – | 43.6 µM | selectivity ratio ([6]; read-out: Ratio CC50/EC50): 21.8; EC50 [11]: 2 µM
8 | Cc1ccc(S(=O)(=O)n2c(NS(C)(=O)=O)c(-c3ccc(Br)cc3)c3ccccc32)cc1 | Not_active | inactive | 13.2 µM | –
9 | CS(=O)(=O)Nc1c(-c2ccccc2)c2ccccc2n1S(=O)(=O)c1ccc(Cl)cc1 | Not_active | inactive | 14.6 µM | –
10 | Cc1ccc(S(=O)(=O)n2c(NS(=O)(=O)c3ccccc3)c(-c3ccccc3)c3ccccc32)cc1 | Not_active | inactive | 109 µM | –
11 | Cc1ccc(S(=O)(=O)Nc2c(-c3ccccc3)c3ccccc3n2S(=O)(=O)c2ccc(C)cc2)cc1 | Not_active | inactive | 414 µM | –
12 | NC(=O)c1ncn([C@@H]2O[C@H](CO)[C@@H](O)[C@H]2O)n1 [RIBAVIRIN] | – | – | 513 µM | EC50 ([4]; mdck): 8.2 µM; Activity [5]: 1.74%; selectivity ratio ([6]; read-out: Selectivity Index): 70; selectivity ratio [7]: 40; EC50 [8]: 12.8 µM; selectivity ratio [9]: 62.6; Activity [10]: 3.8%; EC50 [11]: 7.33 µM; Activity [12]: 1.62%; Activity [13]: 92.8%
13 | Cc1ccc(-c2c(NS(C)(=O)=O)n(S(=O)(=O)c3ccc(C)cc3)c3ccccc23)cc1 | Not_active | inactive | 14.1 µM | –
14 | Cc1ccc(S(=O)(=O)n2c(NS(C)(=O)=O)c(-c3ccccc3)c3cc(C)ccc32)cc1 | Not_active | inactive | 21.3 µM | –
15 | Cc1ccc(S(=O)(=O)n2c(NS(C)(=O)=O)c(-c3cccs3)c3ccccc32)cc1 | Not_active | inactive | 53.6 µM | –
16 | Cc1ccc(S(=O)(=O)n2c(NS(C)(=O)=O)c(-c3ccccc3)c3c(C)cc(C)cc32)cc1 | Not_active | inactive | 357 µM | –
17 | Cc1ccc(S(=O)(=O)n2c(NS(C)(=O)=O)c(-c3ccccc3)c3ccc(C)cc32)cc1 | Not_active | inactive | 5.45 µM | –

Row | Compound | Virus inhibition rate at 0.625 uM [1] | Activity [2] | CC50 at 72 h [3] | further results
18 | Cc1ccc(S(=O)(=O)n2c(NS(C)(=O)=O)c(-c3cccc(C)c3)c3ccccc32)cc1 | Not_active | inactive | 16.5 µM | –
19 | Cc1ccc(S(=O)(=O)n2c(NS(C)(=O)=O)c(-c3ccccc3F)c3ccccc32)cc1 | Not_active | inactive | < 6.25 µM | –
20 | CS(=O)(=O)Nc1c(-c2ccccc2)c2ccccc2n1S(=O)(=O)c1ccc([N+](=O)[O-])cc1 | Not_active | inactive | 55.6 µM | –
21 | Cc1ccc(S(=O)(=O)n2c(NS(C)(=O)=O)c(-c3ccccc3)c3cc(Br)ccc32)cc1 | Not_active | inactive | < 6.25 µM | –
22 | Cc1ccc(S(=O)(=O)n2c(NS(C)(=O)=O)c(-c3cccc(Br)c3)c3ccccc32)cc1 | Not_active | inactive | 16.9 µM | –
23 | Cc1ccc(S(=O)(=O)n2c(NS(C)(=O)=O)c(-c3ccccc3Cl)c3ccccc32)cc1 | Not_active | inactive | 20.9 µM | –
24 | Cc1ccc(S(=O)(=O)n2c(NS(=O)(=O)c3ccc([N+](=O)[O-])cc3)c(-c3ccccc3)c3ccccc32)cc1 | Not_active | inactive | < 6.25 µM | –
25 | COc1ccc2c(-c3ccccc3)c(NS(C)(=O)=O)n(S(=O)(=O)c3ccc(C)cc3)c2c1 | Not_active | inactive | 31.6 µM | –
26 | CS(=O)(=O)Nc1c(-c2ccccc2)c2ccccc2n1S(=O)(=O)c1ccccc1 | Not_active | inactive | 36.4 µM | –
27 | Cc1ccc(S(=O)(=O)n2c(NS(C)(=O)=O)c(-c3ccccc3)c3ccc(F)cc32)cc1 | Not_active | inactive | 22.8 µM | –
28 | COc1ccc(S(=O)(=O)Nc2c(-c3ccccc3)c3ccccc3n2S(=O)(=O)c2ccc(C)cc2)cc1 | Not_active | inactive | 434 µM | –
29 | Cc1ccc(S(=O)(=O)n2c(NS(C)(=O)=O)c(-c3ccc(F)cc3)c3ccccc32)cc1 | Not_active | inactive | 41 µM | –
30 | Cc1ccc(S(=O)(=O)n2c(NS(C)(=O)=O)c(-c3ccccc3)c3cc(F)ccc32)cc1 | Not_active | inactive | 24.4 µM | –
31 | Cc1ccc(S(=O)(=O)n2c(NS(C)(=O)=O)c(-c3cccc(Cl)c3)c3ccccc32)cc1 | Not_active | inactive | 67.1 µM | –
32 | Cc1ccc(S(=O)(=O)n2c(NS(C)(=O)=O)c(-c3ccc(Cl)cc3)c3ccccc32)cc1 | Not_active | inactive | 14.8 µM | –
33 | COc1ccc(S(=O)(=O)n2c(NS(C)(=O)=O)c(-c3ccccc3)c3ccccc32)cc1 | Not_active | inactive | 12.6 µM | –
34 | Cc1ccc(S(=O)(=O)n2c(NS(C)(=O)=O)c(-c3ccccc3)c3cc(Cl)ccc32)cc1 | Not_active | inactive | 12.8 µM | –
